# Measurements: patent US10870889B2, “Immunoglobulin expression levels as biomarker for proteasome inhibitor response” (Onyx Therapeutics, Inc., priority 2013, dated 2020)
# “And” between values parts separate entries of the source, which are not always exact repeats. Identical values can stand only once.
# Tests used:
# [1] = system: multiple myeloma patients; assay: Bortezomib data analysis: combined Ig expression score (Affymetrix microarray, CD138+ tumor cells, GSE9782) versus response and time-to-progression on single-agent bortezomib or dexamethasone; type: in vivo, human; details: bortezomib-treated patients
# Excerpt: Publicly available RNA microarray data in tab-delimited text format were downloaded from the Gene Expression Omnibus (GEO ID: GSE9782).
# A list of 55 probes from this Affymetrix microarray platform that map to genes encoding immunoglobulin (Ig)-related proteins was obtained from Rody et al. Addition File 5. This example tested for an association between normalized intensity of each of these 55 probes and bortezomib response, which was labeled as “PGx_Responder=R” in the dataset. […] The finding of 13 significant associations is far more than expected by chance (Binomial P-value=2×10^−6). […] It is not surprising that many probes are not associated, given that some map to rarer, patient-specific portions of the Ig loci and that others map to regions that are unusually highly-expressed, and therefore not well-measured with microarray technology (i.e., their fluorescence is likely to be saturated).
# Patients were classified as achieving complete response (CR), partial response (PR), minimal response (MR), no change (NC), or progressive disease (PD), using European Group for Bone Marrow Transplantation criteria. In brief, PD requires 25% increase in paraprotein, whereas MR, PR, and CR require at least 25%, 50%, and 100% decreases, respectively.
# Various mean IG expression cutoffs were considered to maximize the clinical utility of a potential diagnostic test. Ultimately, a cutoff of 0.29 (defining “IG-High”>=0.29 and “IG-Low”<0.29) was chosen, predicting response in the training data with 71% sensitivity and 62% specificity. This same cutoff was then applied to time-to-progression (TTP) data for these patients, finding that IG-High patients in this cohort have a 1.4-fold longer median TTP than IG-Low patients (8.4 months vs. 6.0 months; log-rank P-value=0.025).
# [2] = system: IG expression; assay: IG expression in tumor sample of one patient at screening and on Cycle 1 Day 2 of single-agent carfilzomib (RNA-Seq); type: in vivo, human
# Procedure: (§1) Bone marrow samples were aspirated from patients enrolled on Onyx-sponsored Phase 2 trials (NCT00511238, NCT00530816, and NCT00721734) prior to treatment with single-agent carfilzomib. Myeloma tumor cells were isolated by EasySep® immunomagnetic bead-based CD138+ selection (StemCell Technologies), re-suspended in TRIzol (Life Technologies) and frozen at […]. RNA was extracted from these samples with the PureLink RNA kit from Life Technologies (Cat #12183018A), following the recommended protocol for cells in TRIzol suspension, including the optional on-column DNase treatment. Elution volumes ranged from 75 μl-30 μl depending on the total number of cells going into isolation. ERCC control sequences from Life Technologies (ERCC ExFold RNA Spike-In Mix; Cat #4456739) were spiked in to all total RNA samples of sufficient quantity (Nanodrop yield>=150 ng) and quality (Bioanalyzer RIN>=7.0). For 500 ng input libraries, 1 μl of a 1:100 dilution of Mix 1 was added to each total RNA sample and for 150 ng input libraries, 3 μl of a 1:1000 dilution of Mix 1 was added to each total RNA sample. The resulting material was used to construct RNA-Seq libraries with Illumina's TruSeq RNA sample prep kit v2 (Cat #RS-122-2001), with PolyA selection included as the first step. Libraries were sequenced on Illumina's HiSeq 2000 with a target of 70 million fragments using 100×100 bp paired-end sequencing to generate 140 million reads per sample and the resulting raw data was QC-ed with metrics implemented in OmicSoft Array Studio v6.1.
# (§2) Raw sequence reads were aligned and expression of genes & isoforms were quantified with a customized pipeline also built in Array Studio v6.1 [Jun]. This pipeline accepts Illumina adapter-stripped, paired-end reads that are trimmed at the […] if a base reaches PHRED quality score Q2 or lower. All reads are aligned to the transcriptome, which consists of the RefGene annotation of human hg19 supplemented with the more rich Ig loci annotations available from ENSEMBL. Reads aligned with mismatches and unaligned reads are subsequently aligned to the entire human genome, searching for novel exon junctions. Reads that remain unaligned are then aligned to the newly identified exon junctions. Alignments to the different references are compared and the highest scoring alignment is retained, or in the event of a tie, the transcriptome alignment is preferentially kept. Finally, all transcriptome alignment locations are translated to genomic coordinates to estimate the expected number of mappings per gene/isoform using the EM algorithm [Dempster]. The EM algorithm assigns reads with multiple alignment locations to an isoform by calculating the conditional probability of a read aligning to a specific isoform, given all other alignments. Weighting the total number of aligned reads with this probability yields posterior expected read counts for each transcript. The EM counts are normalized by the length of the genes/isoforms and number of reads in a library to yield FPKM values (Fragments Per Kilobase per Million reads). Between-sample normalization is achieved by 75th quantile normalization, where each sample is scaled by the median of 75th quantiles from all samples to yield quantile-normalized FPKM or “FPKQ” values.
# To understand, how IG expression changes during treatment with proteasome inhibitors, the data was examined from one patient for which both a screening tumor sample and a sample collected on Cycle 1 Day 2 (C1D2) of treatment with single-agent carfilzomib were available.
# [3] = system: Line A (high Ig) hybridoma cells; assay: Hybridoma sensitivity to carfilzomib, CellTiter-Glo Luminescent Cell Viability Assay, Line A; type: cell-based; details: 72h treatment, viability vs no treatment control, read-out: inhibitory concentration (IC50) on the cells of Line A
# Procedure: (§3) The two hybridoma cell lines were tested for sensitivity to carfilzomib. Cells of each of Line A (high Ig) and Line B (low Ig) were treated with various doses (40 nM, 30 nM, 20 nM, 15 nM, l0 nM, 7.5 nM, 5 nM, 3.75 nM and 2.5 nM) of carfilzomib for 72h. The viability of the cells were then measured by CellTiter-Glo® Luminescent Cell Viability Assay (Cat. No. G7570; Promega Corporation) and compared to no treatment control.
# [4] = system: multiple myeloma patients; assay: Carfilzomib data analysis: IGH/IGK/IGL and FCGR2B expression (RNA-Seq, FPKQ, CD138+ tumor cells) versus response, cutoffs with % sensitivity/% specificity (ROC) and time-to-progression on single-agent carfilzomib; type: in vivo, human
# Procedure: as §1, §2
# The FPKQ values corresponding to each “gene” of the three Ig loci, IGH (immunoglobulin heavy locus), IGK (immunoglobulin kappa locus) and IGL (immunoglobulin lambda locus), were summed to produce locus-level expression estimates.
# Patients with a best overall response of minimal response (MR) or better (i.e., MR, partial response [PR], very good partial response [VGPR] and complete response [CR]) were grouped into a responder category (N=27; abbreviated as “R”) and patients with a best overall response of stable disease (SD) or worse (i.e., SD and progressive disease [PD]) were grouped into a non-responder category (N=33; abbreviated as “NR”). […]
# [5] = system: Line B (low Ig) hybridoma cells; assay: Hybridoma sensitivity to carfilzomib, CellTiter-Glo Luminescent Cell Viability Assay, Line B; type: cell-based; details: 72h treatment, viability vs no treatment control
# Procedure: as §3
# [6] = system: high and low Ig-expressing hybridoma cell lines; assay: Drug sensitivity assay on two additional pairs of high and low Ig-expressing hybridoma cell lines; type: cell-based
# [7] = Screening vs C1D2, one patient, single-agent carfilzomib
# [8] = one patient, tumor sample on Cycle 1 Day 2 of single-agent carfilzomib
# [9] = FCGR2B cutoffs 75 and 5 combined with IGH-High cutoff 140,000
structure (smiles),measurement,setting,value
CC(C)C[C@H](NC(=O)[C@H](Cc1ccccc1)NC(=O)c1cnccn1)B(O)O [bortezomib],"fold longer median TTP, IG-High vs IG-Low patients","[1]; cutoff 0.29, log-rank P-value=0.025",1.4 fold
same,"median TTP (time-to-progression), IG-Low patients",[1]; mean IG expression score <0.29,6.0 months
same,"median TTP (time-to-progression), IG-High patients",[1]; mean IG expression score >=0.29,8.4 months
CC(C)C[C@H](NC(=O)[C@H](CCc1ccccc1)NC(=O)CN1CCOCC1)C(=O)N[C@@H](Cc1ccccc1)C(=O)N[C@@H](CC(C)C)C(=O)[C@@]1(C)CO1 [carfilzomib],"Fold-Change of expression, gene ICKV3-20",[2]; [7],4.11
same,"Fold-Change of expression, gene IGHA1",[2]; [7],3.37
same,"Fold-Change of expression, gene IGHV3-30",[2]; [7],3.63
same,"Fold-Change of expression, gene IGHV3-33",[2]; [7],3.77
same,"Fold-Change of expression, gene IGKC",[2]; [7],3.88
same,IG expression lower in the sample collected one day after the first dose,"[2]; one patient, screening vs C1D2",3- to 4 fold
same,"Expression C1D2, gene ICKV3-20",[2]; [8],9.6E+04
same,"Expression C1D2, gene IGHA1",[2]; [8],1.3E+05
same,"Expression C1D2, gene IGHV3-30",[2]; [8],2.4E+04
same,"Expression C1D2, gene IGHV3-33",[2]; [8],2.1E+04
same,"Expression C1D2, gene IGKC",[2]; [8],1.4E+05
same,IC50,[3],10.4 nM
same,"median TTP, IGH+FCGR2B-Negative patients",[4]; [9],1.2 months
same,"median TTP, IGH+FCGR2B-Positive patients",[4]; [9],8.9 months
same,"median TTP (time to progression), IGH-Low patients","[4]; IGH FPKQ <160,000",1.4 months and 1.3 months
same,"median TTP (time to progression), IGH-High patients","[4]; IGH FPKQ >=160,000",7.6 months and 7.3 months
same,"fold longer median TTP, IGH-High vs IGH-Low patients",[4]; log-rank P-value=0.003,6 fold and 5.4 fold
same,"fold longer median TTP, IGH+FCGR2B-Positive vs IGH+FCGR2B-Negative patients",[4]; log-rank P-value=3×10−5,7.3 fold
same,IC50,[5],24.3 nM
same,sensitivity of high Ig-expressing hybridoma lines relative to low Ig-expressing lines,[6],greater sensitivity
